Usually Ki stands for a dissociation constant, usually derived from enzyme kinetics or from competition with a known ligand. A lower Ki goes with a stronger hold on the target.

The experiment deals with T1, h-GABAA α5β2γ1 (Homo sapiens, UniProt P31644+Q8N1C3).
T1 construct: expressed in transfected cells; host or cells: HEK293F cells (ThermoFisher R79007), membranes
T1 sequence (P31644 32-462): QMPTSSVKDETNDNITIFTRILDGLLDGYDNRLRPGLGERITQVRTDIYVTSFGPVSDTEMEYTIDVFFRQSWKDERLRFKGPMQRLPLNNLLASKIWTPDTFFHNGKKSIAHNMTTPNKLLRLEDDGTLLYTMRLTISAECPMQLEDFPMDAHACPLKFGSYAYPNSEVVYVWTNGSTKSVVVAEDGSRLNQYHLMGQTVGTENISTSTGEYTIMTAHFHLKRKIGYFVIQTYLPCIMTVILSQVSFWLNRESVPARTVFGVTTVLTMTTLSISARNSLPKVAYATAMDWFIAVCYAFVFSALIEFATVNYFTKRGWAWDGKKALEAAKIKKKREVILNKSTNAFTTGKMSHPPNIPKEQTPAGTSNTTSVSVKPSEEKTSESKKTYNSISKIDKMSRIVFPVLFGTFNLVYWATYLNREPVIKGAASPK
T1 sequence (P47870 25-512 partner limits assumed): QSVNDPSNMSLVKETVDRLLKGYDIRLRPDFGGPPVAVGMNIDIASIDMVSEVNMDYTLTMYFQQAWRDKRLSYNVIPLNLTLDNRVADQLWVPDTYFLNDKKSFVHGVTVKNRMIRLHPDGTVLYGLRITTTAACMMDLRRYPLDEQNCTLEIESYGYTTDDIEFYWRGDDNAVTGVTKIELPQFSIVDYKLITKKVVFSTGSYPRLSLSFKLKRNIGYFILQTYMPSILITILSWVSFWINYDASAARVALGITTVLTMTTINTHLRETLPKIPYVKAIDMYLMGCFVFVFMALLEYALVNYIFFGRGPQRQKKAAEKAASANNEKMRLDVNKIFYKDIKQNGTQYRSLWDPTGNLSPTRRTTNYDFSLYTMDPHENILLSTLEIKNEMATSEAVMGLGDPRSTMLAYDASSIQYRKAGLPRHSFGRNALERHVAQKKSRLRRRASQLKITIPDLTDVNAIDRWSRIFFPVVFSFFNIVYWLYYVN
T1 sequence (Q8N1C3 36-465): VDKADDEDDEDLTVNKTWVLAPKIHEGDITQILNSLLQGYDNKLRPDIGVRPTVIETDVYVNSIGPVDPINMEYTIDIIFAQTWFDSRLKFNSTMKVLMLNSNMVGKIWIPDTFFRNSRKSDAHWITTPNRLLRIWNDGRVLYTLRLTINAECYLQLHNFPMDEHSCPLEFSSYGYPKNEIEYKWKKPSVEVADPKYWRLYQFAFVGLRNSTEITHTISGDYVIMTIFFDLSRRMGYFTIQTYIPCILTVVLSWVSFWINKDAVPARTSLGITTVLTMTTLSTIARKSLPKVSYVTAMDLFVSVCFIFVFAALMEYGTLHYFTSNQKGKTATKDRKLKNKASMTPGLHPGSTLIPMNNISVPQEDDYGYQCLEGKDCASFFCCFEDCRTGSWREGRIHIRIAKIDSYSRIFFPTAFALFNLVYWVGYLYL
Nature of the experiment: Radioligand binding assay, [3H]RO7239181 competition, HEK293F membranes. As for the experimental part:
The affinity of compounds at GABAA γ1 subunit-containing receptors was measured by competition for [^3H]RO7239181 (67.3 Ci/mmol; Roche) binding to membranes from HEK293F cells (ThermoFisher R79007) expressing human (transiently transfected) receptors of composition […], α2β2γ1, α1β2γ1. For better protein expression of the α2 subunit-containing receptors, the 28 amino acid long signal peptide (Met1 to Ala28) of the human GABAA α2 subunit was substituted by the 31 amino acid long signal peptide (Met1 to Ser31) of human GABAA α5 subunit.
Harvested pellets from HEK293F cells expressing the different GABAA receptor subtypes were resuspended in Mannitol Buffer pH 7.2-7.4 (Mannitol 0.29M, Triethylamine 10 mM, Acetic acid 10 mM, EDTA 1 mM plus protease inhibitors (20 tablets Complete, Roche Diagnostics Cat. No. 05 056 489 001 per liter)), washed two times and then resuspended at 1:10 to 1:15 dilution in the same buffer. Cell disruption was performed by stirring the suspension in a Parr vessel #4637 at 435 psi for 15 minutes, and then the suspensions were centrifuged at 1000×g for 15 minutes at 4° C. (Beckman Avanti J-HC; rotor JS-4.2). The supernatant (S1) was transferred in a 21 Schott flask and the pellet (P1) was resuspended with Mannitol Buffer up to 175 ml. The resuspended pellet was transferred into a 250 ml Corning centrifugal beaker and centrifuged at 1500×g for 10 minutes at 4° C. (Beckman Avanti J-HC; rotor JS-4.2). The supernatant (S1) was then transferred in the 21 Schott flask and the pellet was discarded. The supernatants (S1) were centrifuged in 500 ml Beckman polypropylene centrifugal beaker at 15′000×g for 30 minutes at 4° C. (Beckman Avanti J-20 XP; rotor JLA-10.500). The pellet (P2) was resuspended with Mannitol Buffer 1:1 and frozen at −80° C. The supernatant (S2) was centrifuged in 100 ml Beckman polypropylene centrifugal tubes at 48000×g for 50 minutes at 4° C. (Beckman Avanti J-20 XP; rotor JA-18). The supernatant (S3) was discarded and the pellet (P3) was resuspended with 1:1 Mannitol Buffer. The P2 and P3 protein concentration was determined with the BIORAD Standard assay method with bovine serum albumin as standard and measured on the NANO-Drop 1000. The membrane suspension was aliquots (500 μl per tube) and stored at −80° C. until required. Membrane homogenates were resuspended and polytronised (Polytron PT1200E Kinematica AG) in Potassium Phosphate 10 mM, KCl 100 mM binding buffer at pH 7.4 to a final assay concentration determined with a previous experiment.
Radioligand binding assays were carried out in a volume of 200 μL (96-well plates) which contained 100 μL of cell membranes, [^3H]RO7239181 at a concentration of 1.5 nM (α5β2γ1) or 20-30 nM (α1β2γ1, α2β2γ1) and the test compound in the range of [0.3-10000]×10^−9 M. Nonspecific binding was defined by 10×10^−6 (α5β2γ1) and 30×10^−6 M RO7235136 and typically represented less than 5% (α5β2γ1) and less than 20% (α1β2γ1, α2β2γ1) of the total binding. Assays were incubated to equilibrium for 1 hour at 4° C. and then, membranes were filtered onto unifilter (96-well white microplate with bonded GF/C filters preincubated 20-50 minutes in 0.3% Polyethylenimine) with a Filtermate 196 harvester (Packard BioScience) and washed 4 times with cold Potassium Phosphate 10 mM pH 7.4, KCl 100 mM binding buffer. After drying, filter-retained radioactivity was detected by liquid scintillation counting. Ki values were calculated using Excel-Fit (Microsoft) and are the means of two determinations.
In turn, `Clc1cccnc1C1=NCc2nnc(-c3ccncn3)n2-c2ccc(Br)c(Cl)c21` [Example 44, 8-bromo-7-chloro-6-(3-chloro-2-pyridyl)-1-pyrimidin-4-yl-4H-[1,2,4]triazolo[4,3-a][1,4]benzodiazepine] showed a Ki of 1.4 nM. The same measure for `Cc1nnc2n1-c1ccc(C(F)(F)F)c(Cl)c1C(c1ncccc1F)=NC2` [Example 78, 7-chloro-6-(3-fluoro-2-pyridyl)-1-methyl-8-(trifluoromethyl)-4H-[1,2,4]triazolo[4,3-a][1,4]benzodiazepine]: 7.8 nM; for `Fc1ccccc1C1=NCc2nnc(-c3ccncn3)n2-c2ccc(Cl)c(Cl)c21` [Example 18, 7,8-dichloro-6-(2-fluorophenyl)-1-pyrimidin-4-yl-4H-[1,2,4]triazolo[4,3-a][1,4]benzodiazepine]: 2.6 nM; for `O=c1[nH]nc2n1-c1ccc(Cl)c(Cl)c1C(c1c(F)cccc1F)=NC2` [Example 9, 7,8-dichloro-6-(2,6-difluorophenyl)-2,4-dihydro-[1,2,4]triazolo[4,3-a][1,4]benzodiazepin-1-one]: 0.7 nM. Next, `Cc1nnc2n1-c1ccc(C(C)(F)F)c(Cl)c1C(c1c(F)cccc1F)=NC2` [Example 22, 7-chloro-8-(1,1-difluoroethyl)-6-(2,6-difluorophenyl)-1-methyl-4H-[1,2,4]triazolo[4,3-a][1,4]benzodiazepine]: 4.3 nM. As to `Fc1cccnc1C1=NCc2nnc(C3CC3)n2-c2ccc(Br)c(Cl)c21` [Example 77, 8-bromo-7-chloro-1-cyclopropyl-6-(3-fluoro-2-pyridyl)-4H-[1,2,4]triazolo[4,3-a][1,4]benzodiazepine], the Ki amounted to 2.8 nM. Next, `COc1nnc2n1-c1ccc(Cl)c(Cl)c1C(c1c(F)cccc1F)=NC2` [Example 90, 7,8-dichloro-6-(2,6-difluorophenyl)-1-methoxy-4H-[1,2,4]triazolo[4,3-a][1,4]benzodiazepine]: 1 nM; `Cc1nnc2n1-c1ccc(Br)c(Cl)c1C(c1c(F)cccc1F)=NC2` [Example 1, 8-bromo-7-chloro-6-(2,6-difluorophenyl)-1-methyl-4H-[1,2,4]triazolo[4,3-a][1,4]benzodiazepine]: 1.1 nM. Consider `Fc1cccc(F)c1C1=NCc2nnc(-c3cccnn3)n2-c2ccc(Br)c(Cl)c21` [Example 104, 8-bromo-7-chloro-6-(2,6-difluorophenyl)-1-pyridazin-3-yl-4H-[1,2,4]triazolo[4,3-a][1,4]benzodiazepine], for which the Ki worked out at 0.6 nM. Turning to `Fc1ccccc1C1=NCc2nnc(C3CC3)n2-c2ccc(Br)c(Cl)c21` [Example 2, 8-bromo-7-chloro-1-cyclopropyl-6-(2-fluorophenyl)-4H-[1,2,4]triazolo[4,3-a][1,4]benzodiazepine], the affinity, expressed as Ki, was 5.7 nM.

`Cc1ccc2c(c1Cl)C(c1c(F)cccc1F)=NCc1nnc(C)n1-2` [Example 20, 7-chloro-6-(2,6-difluorophenyl)-1,8-dimethyl-4H-[1,2,4]triazolo[4,3-a][1,4]benzodiazepine] returned a Ki of 2.9 nM.

In turn, `Fc1cccnc1C1=NCc2nncn2-c2ccc(Cl)c(Cl)c21` [Example 60, 7,8-dichloro-6-(3-fluoro-2-pyridyl)-4H-[1,2,4]triazolo[4,3-a][1,4]benzodiazepine] returned an inhibition constant Ki of 7.5 nM. As for `Fc1cccc(F)c1C1=NCc2nncn2-c2ccc(I)c(Cl)c21` [Example 34, 7-chloro-6-(2,6-difluorophenyl)-8-iodo-4H-[1,2,4]triazolo[4,3-a][1,4]benzodiazepine], the Ki turned out to be 0.3 nM. As for `Fc1ccccc1C1=NCc2nnc(-c3cccnn3)n2-c2ccc(Br)c(Cl)c21` [Example 3, 8-bromo-7-chloro-6-(2-fluorophenyl)-1-pyridazin-3-yl-4H-[1,2,4]triazolo[4,3-a][1,4]benzodiazepine], the inhibition constant Ki came to 1.5 nM. The same measure for `Cc1nnc2n1-c1ccc(Br)c(Cl)c1C(c1c(F)cccc1Cl)=NC2` [Example 50, 8-bromo-7-chloro-6-(2-chloro-6-fluoro-phenyl)-1-methyl-4H-[1,2,4]triazolo[4,3-a][1,4]benzodiazepine]: 1 nM; for `Cn1cc(-c2nnc3n2-c2ccc(Cl)c(Cl)c2C(c2ncccc2F)=NC3)cn1` [Example 58, 7,8-dichloro-6-(3-fluoro-2-pyridyl)-1-(1-methylpyrazol-4-yl)-4H-[1,2,4]triazolo[4,3-a][1,4]benzodiazepine]: 3.6 nM. Next, `Fc1cccc(F)c1C1=NCc2nncn2-c2ccc(C(F)(F)F)c(Cl)c21` [Example 37, 7-chloro-6-(2,6-difluorophenyl)-8-(trifluoromethyl)-4H-[1,2,4]triazolo[4,3-a][1,4]benzodiazepine]: 2.1 nM. The same measure for `Fc1cccc(F)c1C1=NCc2nncn2-c2ccc(C(F)F)c(Cl)c21` [Example 23, 7-chloro-8-(difluoromethyl)-6-(2,6-difluorophenyl)-4H-[1,2,4]triazolo[4,3-a][1,4]benzodiazepine]: 5.8 nM; for `O=c1[nH]nc2n1-c1ccc(Br)c(Cl)c1C(c1ccccc1F)=NC2` [Example 26, 8-bromo-7-chloro-6-(2-fluorophenyl)-2,4-dihydro-[1,2,4]triazolo[4,3-a][1,4]benzodiazepin-1-one]: 2.3 nM. As to `Cc1nnc2n1-c1ccc(Br)c(Cl)c1C(c1ncccc1F)=NC2` [Example 24, 8-bromo-7-chloro-6-(3-fluoro-2-pyridyl)-1-methyl-4H-[1,2,4]triazolo[4,3-a][1,4]benzodiazepine], the Ki amounted to 3.5 nM.

The record behind these values is patent US20230141603A1, “BENZODIAZEPINE DERIVATIVES AS GABA A GAMMA1 PAM” (Hoffmann-La Roche Inc., priority 2021, published 2023).
